Laboratory results: US12653903B2, “Nanoparticle and use thereof for the combinatorial therapy of endoplasmic reticulum stress inducer and immunotherapeutic to tumors and immune cells” (National Yang Ming Chiao Tung University, priority 2023, dated 2026)

Test system: Panc-02 cells
Conditions: concentration used as equivalent CB dose
Description: Panc-02 cells or NIT-cells were seeded in 96-well plates. Cells were treated with various miR or CB-loaded SLNs formulations. TCA was used to fix the cells after treatment. The wells were then stained with sulforhodamine B (SRB) and rapidly rinsed with acetic acid. Following air drying. Tris base was added to each well, and the plates were examined using an ELISA reader. Cell viability (%)=(The absorbance value of treated cells)(The absorbance value of untreated cells)×100

Q: How did the IC30 turn out when `Cc1cc2c(C(N)=O)cccc2n1-c1nc2c(c(NCc3ccccc3)n1)COCC2` [CB, CB-5083] was run?
A: Its IC30 is 210 nM.
